According to patent publication US6403576B1, “Antifungal and antiparasitic compounds” (priority 1998, dated 2002):
In brackets after ≈: the same amount, converted by molar mass. Where a name gives a salt, the structure may show the parent alone. Read-outs that look alike come from different tables or passages of the source.

Assays:
[1] = tested on: T.b. brucei Lab 110 EATRO; test: Growth of bloodform trypanosomes in vitro, IC50 at 48 h; format: cell-based, Trypanosoma brucei brucei; conditions: for IC50: Trypanosoma brucei
Source text: (§1) Trypanosome (a) IN VITRO drug screening method: 14 clinical isolates of Trypanosoma brucei rhodesiense (agent of East African Sleeping Sickness) many of which are refractory to standard trypanocides such as diamidines and melarsoprol (Bacchi et al., 1990, Antimicrob Agents Chemother 34, 1183-1188) are maintained as laboratory infections in rats and mice and as frozen stabilates of blood forms. Six of these isolates have been cultivated as blood forms in modified Iscove's medium (Hirumi & Hirumi, 1989, J Parasitol 75, 985-989). These cultivated blood forms are fully infective and serve as the initial screen for trypanocides based on a 24 well culture plate system and readings done on duplicate wells using a Coulter Counter (Bacchi and Yartlett, 1993, Acta Tropica 54, 225-236; Bacchi et al., 1996, Antimicrob Agents Chemother 4, 1448-1453).
(§2) The trypanosomes studied were Trypanosoma brucei brucei Lab 110 EATRO, which is pathogenic to cattle and other livestock, and several strains of Trypanosoma brucei rhodesiense, a parasite of humans, domestic and wild animals. Strains of T. b. rhodesiense included drug resistant clinical isolates KETRI 243 and 269 and KETRI 243 As-10-3, a highly melarsen- and diamidine-resistant clone of KETRI 243. The 19 extracts were tested in an in vitro screen using a semi-defined medium for growth of bloodstream trypomastigotes at 37° C. (Hirumi & Hirumi, 1989, supra) to determine IC50 values (Bacchi et al., 1996, supra).
(§3) Inhibitory of cholesterol synthesis, metabolism, and/or excretion described above in the detailed description were tested versus trypanosome isolates grown as bloodforms in HMI-18 medium containing 10% fetal bovine serum.

[2] = tested on: T.b. rhodesiense KETRI 243; test: as above; format: cell-based, Trypanosoma brucei rhodesiense; conditions: for IC50: Trypanosoma brucei, RHODESIENSE
Source text: as §1, with “1448-1453). This screen has proven highly reproducible, needs minimal drug since the volume is limited (1 ml medium/well) and is complete after 48 h. It has proven to be highly predictive of in vivo activity (e.g., Brun et al., 1996, Antimicrob Agents Chemother 40, 1442-1447; Bacchi et al., 1996, supra).” for “1448-1453).”
as §2
as §3, with “Numerous similarities in leishmanial and trypanosomal lipid uptake and metabolism may explain common natural product drug susceptibility. Inhibitory” for “Inhibitory”

[3] = tested on: T.b. rhodesiense KETRI 269; test: as above; format: cell-based, Trypanosoma brucei rhodesiense; conditions: for IC50: Trypanosoma brucei, RHODESIENSE
Source text: as §1, with “1448-1453). This screen has proven highly reproducible, needs minimal drug since the volume is limited (1 ml medium/well) and is complete after 48 h. It has proven to be highly predictive of in vivo activity (e.g., Brun et al., 1996, Antimicrob Agents Chemother 40, 1442-1447; Bacchi et al., 1996, supra).” for “1448-1453).”
as §2
as §3, with “Numerous similarities in leishmanial and trypanosomal lipid uptake and metabolism may explain common natural product drug susceptibility. Inhibitory” for “Inhibitory”

[4] = tested on: T.b. rhodesiense KETRI 243 As-10-3; test: as above; format: cell-based; conditions: Trypanosoma brucei
Source text: as §1, with “1448-1453). This screen has proven highly reproducible, needs minimal drug since the volume is limited (1 ml medium/well) and is complete after 48 h. It has proven to be highly predictive of in vivo activity (e.g., Brun et al., 1996, Antimicrob Agents Chemother 40, 1442-1447; Bacchi et al., 1996, supra).” for “1448-1453).”
as §2
as §3, with “Numerous similarities in leishmanial and trypanosomal lipid uptake and metabolism may explain common natural product drug susceptibility. Inhibitory” for “Inhibitory”

[5] = target: Squalene Oxidase (Homo sapiens, UniProt Q14534); conditions: Abe et al, 1994; cited from earlier work
[6] = tested on: macrophage cholesterol synthesis; conditions: cited from earlier work
[7] = target: Squalene Synthetase; conditions: Abe et al, 1994; cited from earlier work
[8] = tested on: J-774 A.1 macrophages; conditions: 10 uM; not from mevalonate; cited from earlier work
[9] = tested on: Leishmania; test: Mevalonate as nutritional supplement of in vitro cultures; format: cell-based; conditions: mevalonate-fed cultures
Experimental: To investigate this, we used ^14C-mevalonic acid to determine rate of incorporation by Leishmania (1.0 ng/hr/108 parasites at 25° C, using the respirometric assay. We also looked at mevalonic acid catabolism and found mevalonate is sparingly metabolized to CO2 (less than 1/25 the rate of aspartic acid metabolism, a most rapidly catabolized amino acid, Jackson, et al., 1989, Am J Trop Med Hyg 41, 318-330) even when the promastigotes are maintained under starvation condition for 30 minutes. When mevalonate was added as a nutritional supplement the parasites grew profusely but less rapidly than parallel unsupplemented control cultures. […] Given these preliminary observations: it appears Leishmania (a) incorporate mevalonic acid readily from their environment; (b) catabolism is spared even under starvation conditions; and (c) mevalonic acid can act as a nutritional supplement in vitro.

[10] = Table 7, HMI-18 medium, 10% fetal bovine serum, 48 h
[11] = Table 7, HMI-18 medium, 10% fetal bovine serum, 48 h, read-out: IC50 Lab 110 EATRO
[12] = Table 7, HMI-18 medium, 10% fetal bovine serum, 48 h, read-out: IC50 243
[13] = Table 7, HMI-18 medium, 10% fetal bovine serum, 48 h, read-out: IC50 269
[14] = read-out: IC50 KETRI 243 As-103

Sequence of Squalene Oxidase (Q14534 whole entry): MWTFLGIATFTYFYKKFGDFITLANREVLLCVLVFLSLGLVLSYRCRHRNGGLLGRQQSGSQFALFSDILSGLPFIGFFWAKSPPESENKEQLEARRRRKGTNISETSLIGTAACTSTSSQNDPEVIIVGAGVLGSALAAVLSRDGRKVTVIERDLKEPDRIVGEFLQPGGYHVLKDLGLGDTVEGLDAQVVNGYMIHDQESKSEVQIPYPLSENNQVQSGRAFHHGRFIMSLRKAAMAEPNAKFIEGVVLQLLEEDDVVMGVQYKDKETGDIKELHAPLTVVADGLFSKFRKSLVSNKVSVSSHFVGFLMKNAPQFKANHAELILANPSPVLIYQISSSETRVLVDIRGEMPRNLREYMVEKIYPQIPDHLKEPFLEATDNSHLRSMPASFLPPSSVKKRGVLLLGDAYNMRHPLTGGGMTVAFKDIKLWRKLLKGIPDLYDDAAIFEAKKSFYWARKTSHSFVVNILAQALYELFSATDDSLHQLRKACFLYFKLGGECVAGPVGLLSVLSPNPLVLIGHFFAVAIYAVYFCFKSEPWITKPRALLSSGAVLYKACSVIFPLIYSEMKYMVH

CC(C)n1c(/C=C/C(O)CC(O)CC(=O)O)c(-c2ccc(F)cc2)c2ccccc21 (racemic) [Lescol, 6-Heptenoic acid, 3,5-dihydro-7-[3-(4-fluorophenyl)-1-(1-methylethyl)-1H-indol-2-yl-]-[R*,S*-(E)]-, (+−)-]
IC50 Lab 110 EATRO [1, 10]: >100 µg/mL | IC50 243 [2, 10]: >100 µg/mL

CC[C@H](C)C(=O)O[C@H]1C[C@@H](C)C=C2C=C[C@H](C)[C@H](CC[C@@H]3C[C@@H](O)CC(=O)O3)[C@H]21 (relative stereo) [Mevacor, Butanoic acid, 2-methyl-,1,2,3,7,8,8a-hexahydro-3,7-dimethyl-8-[2-(tetrahydro-4-hydroxy-6-oxo-2H-pyran-2-yl)ethyl]-1-naphthalenyl ester,[1S[1alpha(R*),3alpha,7beta,8beta(2S*,4S*), 8abeta]]-]
IC50 Lab 110 EATRO [1]: 3.3 µg/mL (≈ 8.16 µM) | IC50 243 [2, 10]: 4.4 µg/mL (≈ 10.9 µM) | IC50 269 [3, 10]: 6.9 µg/mL (≈ 17.1 µM)

CCC(C)(C)C(=O)O[C@H]1C[C@@H](C)C=C2C=C[C@H](C)[C@H](CC[C@@H]3C[C@@H](O)CC(=O)O3)[C@H]21 (relative stereo) [Zocor, [1S-[1-alpha(beta-S*,delta-S*), 2-alpha, 6-alpha,8-beta(R*),8a-alpha]]2,2-dimethylbutanoic acid 1,2,3,7,8,8a-hexahydro-3,7-dimethyl-8-[2-(tetrahydro-4-hydroxy-6-oxo-2H-pyran-2-yl)ethyl]-1-naphthalenyl ester]
IC50 [1, 11]: 1.33 µg/mL (≈ 3.18 µM) | IC50 [2, 12]: 12.9 µg/mL (≈ 30.8 µM) | IC50 [3, 13]: 7 µg/mL (≈ 16.7 µM)

CCOC(=O)C(C)(C)Oc1ccc(Cl)cc1 [Atromid-S, Propanoic acid, 2-(4-chlorophenoxy)-2-methyl-, ethyl ester]
IC50 [1, 11]: > 100 µg/mL | IC50 [2, 12]: > 100 µg/mL

COCc1c(C(C)C)nc(C(C)C)c(/C=C/[C@@H](O)C[C@@H](O)CC(=O)O)c1-c1ccc(F)cc1 [Baycol, 7-[4-(4-fluorophenyl)-5-(methoxymethyl)-2,6-bis(1-methylethyl)-3-pyridinyl]-3,5-dihydroxy-, monosodium salt, [S-(R*,S*-(E))]]-]
IC50 [1, 11]: 13 µg/mL | IC50 ([4]; read-out: IC50 243 As 10-3): 52 µg/mL | IC50 [2, 12]: 7.7 µg/mL

CN(C/C=C/C#CC(C)(C)C)Cc1cccc2ccccc12 [Lamisil, 1-Naphthalenemethanamine, N-(6,6-dimethyl-2-hepten-4-ynyl)-N-methyl-, (E)-]
IC50 [1, 11]: 1.3 µg/mL (≈ 4.46 µM) | IC50 ([4]; read-out: IC50 243 As 10-3): > 100 µg/mL | IC50 [2, 12]: 86 µg/mL (≈ 295 µM) | IC50 [3, 13]: 77 µg/mL (≈ 264 µM)

Cc1ccc(C)c(OCCCC(C)(C)C(=O)O)c1 [Lopoid, Pentanoic acid, 5-(2,5-dimethylphenoxy)-2,2-dimethyl-]
IC50 [1, 11]: > 100 µg/mL | IC50 [2, 12]: > 100 µg/mL

Nc1nc(N)nc(Nc2ccc([As]=O)cc2)n1 (stereo not shown) [Melarsen Oxide]
IC50 ([1]; 48 h, read-out: IC50 EATRO 110): 0.00077 µg/mL | IC50 [4, 14]: 0.0072 µg/mL | IC50 ([2]; 48 h, read-out: IC50 KETRI 243): 0.0025 µg/mL | IC50 ([3]; 48 h, read-out: IC50 KETRI 269): 0.0066 µg/mL

CCN(C/C=C/C#CC(C)(C)C)Cc1cccc(OCc2cc(-c3ccsc3)cs2)c1 [NB-598]
IC50 [5]: 0.75 nM

CN(C/C=C/c1ccccc1)Cc1cccc2ccccc12 [Naftifine, 1-Naphthalenemethanamine, N-methyl-N-(3-phenyl-2-propenyl)-(E)]
IC50 [5]: 930 nM

N=C(N)c1ccc(OCCCCCOc2ccc(C(=N)N)cc2)cc1 [Pentamidine]
IC50 ([1]; Table 1, 48 hr cultures, HMI-18 medium, read-out: IC50 EATRO 110): 0.00048 µg/mL (≈ 0.00141 µM) | IC50 [4, 14]: 0.003 µg/mL (≈ 0.00881 µM) | IC50 ([2]; Table 1, 48 hr cultures, HMI-18 medium, read-out: IC50 KETRI 243): 0.00186 µg/mL (≈ 0.00546 µM) | IC50 ([3]; Table 1, 48 hr cultures, HMI-18 medium, read-out: IC50 KETRI 269): 0.00192 µg/mL (≈ 0.00564 µM)

CC[C@H](C)C(=O)O[C@H]1C[C@H](O)C=C2C=C[C@H](C)[C@H](CC[C@@H](O)C[C@@H](O)CC(=O)O)[C@H]21 [Pravachol, [1S-(1-alpha(beta-S*,delta-S*),2-alpha, 6-alpha,8-beta(R*),8a-alpha]]-1,2,6,7,8,8a-hexahydro-2-methyl-8-(2-methyl-1-oxobutoxy)-beta,delta,6-trihydroxy-1-Naphthaleneheptanoic acid monosodium salt]
IC50 [1, 11]: > 100 µg/mL | LDL increased ([6]; 0.1 mg/ml pravastatin): 119% | concentration that increased cholesterol esterification [6]: ≤ 0.19 mg/mL | concentration that inhibited cholesterol esterification [6]: > 0.19 mg/mL | increased LDL degradation ([6]; humans, 40 mg/day for 8 weeks): 57% | inhibited cholesterol synthesis ([6]; humans, 40 mg/day for 8 weeks): 55-62% | IC50 [2, 12]: > 100 µg/mL

CC(=O)OC1OC(OC2C(OC3CC[C@@]4(C)C(=CCC5C4CC[C@@]4(C)C5CC5OC6(CC[C@@H](C)CO6)[C@@H](C)[C@@]54O)C3)OC(CO)C(O)C2OC2OC(C)C(O)C(O)C2O)C(O)C(O)C1O (stereo partly shown) [SU-1461, Mannispirostan A]
IC50 ([1]; Table 2, secondary extracts, * extracts precipitated in medium after 24 h, read-out: IC50 T.b. brucei 110): 6.4 µg/mL (≈ 6.89 µM)

C=C(CC[C@]12O[C@H](C(=O)O)[C@@](O)(C(=O)O)[C@](C(=O)O)(O1)[C@H](OC(=O)/C=C/[C@@H](C)C[C@@H](C)CC)[C@H]2O)[C@@H](OC(C)=O)[C@H](C)Cc1ccccc1 [Squalestatin 1]
IC50 [7]: 15.2 nM

C=C(CC[C@]12O[C@H](C(=O)O)[C@@](O)(C(=O)O)[C@](C(=O)O)(O1)[C@H](OC(=O)/C=C/[C@@H](C)C[C@@H](C)CC)[C@H]2O)[C@@H](O)[C@H](C)Cc1ccccc1 [Squalestatin 2]
IC50 [7]: 15.1 nM

C=C(CC[C@]12O[C@H](C(=O)O)[C@@](O)(C(=O)O)[C@](C(=O)O)(O1)[C@H](O)[C@H]2O)[C@@H](OC(C)=O)[C@H](C)Cc1ccccc1 [Squalestatin 3]
IC50 [7]: 5.9 nM

C=C(CC[C@]12O[C@H](C(=O)O)[C@@](O)(C(=O)O)[C@](C(=O)O)(O1)[C@H](OC(=O)/C=C/[C@@H](C)C[C@@H](C)CC)[C@H]2O)[C@@H](OC(C)=O)[C@H](C)Cc1ccccc1 [Zaragozic acid A]
IC50 [7]: 0.078 nM

C/C=C/CCCC/C=C/CCCCC(=O)O[C@@H]1[C@@H](O)[C@@]2(CCC(C)C(O)C(C)C/C=C/c3ccccc3)O[C@H](C(=O)O)[C@@](O)(C(=O)O)[C@]1(C(=O)O)O2 (stereo partly shown) [Zaragozic acid B]
IC50 [7]: 0.029 nM

CC(=O)O[C@H](CCC[C@]12O[C@H](C(=O)O)[C@@](O)(C(=O)O)[C@](C(=O)O)(O1)[C@H](OC(=O)CC/C=C/[C@H](C)CCCc1ccccc1)[C@H]2O)[C@H](C)Cc1ccccc1 [Zaragozic acid C]
IC50 [7]: 0.045 nM

CC1=C(/C=C/C(C)=C/C=C/C(C)=C/C=C/C=C(C)/C=C/C=C(C)/C=C/C2=C(C)CCCC2(C)C)C(C)(C)CCC1 [beta-carotene]
cholesterol synthesis inhibited from acetate [8]: 63%

C[C@@](O)(CCO)CC(=O)O [mevalonic acid]
logarithmic phase growth longer than unsupplemented cultures [9]: 2 fold | duration of logarithmic phase growth ([9]; unsupplemented ended at 4-5 days): > 10 days
